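Interpolation was linear, between the two tested concentrations surrounding the appropriate level; five concentrations were tested over 48 hours in 96-well plates. TGI is the concentration that stops growth completely.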
Assays:
Experiment in all cases: NCI tumour cell line growth inhibition, 48 h
ACHN renal = system: ACHN renal
HOP-62 NSCLC = system: HOP-62 NSCLC
HOP-92 NSCLC = system: HOP-92 NSCLC
KM12 colon = system: KM12 colon
MALME-3M melanoma = system: MALME-3M melanoma
NCI-H23 lung = system: NCI-H23 lung
OVCAR-4 ovarian = system: OVCAR-4 ovarian
OVCAR-8 ovarian = system: OVCAR-8 ovarian
RPMI-8226 leukemia = system: RPMI-8226 leukemia
SNB-19 CNS = system: SNB-19 CNS
SW-620 colon = system: SW-620 colon
UO-31 renal = system: UO-31 renal
EKVX NSCLC = system: EKVX NSCLC
HCC-2998 colon = system: HCC-2998 colon
RXF 393 renal = system: RXF 393 renal
SR leukemia = system: SR leukemia
MDA-N = system: MDA-N

Row | Structure (SMILES) | TGI (ACHN renal) [µM] | TGI (HOP-62 NSCLC) [µM] | TGI (HOP-92 NSCLC) [µM] | TGI (KM12 colon) [µM] | TGI (MALME-3M melanoma) [µM] | TGI (NCI-H23 lung) [µM] | TGI (OVCAR-4 ovarian) [µM] | TGI (OVCAR-8 ovarian) [µM] | TGI (RPMI-8226 leukemia) [µM] | TGI (SNB-19 CNS) [µM] | TGI (SW-620 colon) [µM] | TGI (UO-31 renal) [µM] | TGI (EKVX NSCLC) [µM] | TGI (HCC-2998 colon) [µM] | TGI (RXF 393 renal) [µM] | TGI (SR leukemia) [µM] | TGI (MDA-N) [µM]
1 | Cc1cc(N(CCC#N)CCC#N)ccc1/C=C1N=C(/C=C\c2ccccc2)N(NC(=O)CC(=O)Nc2ccccc2Cl)C\1=O | > 100 | > 100 | > 100 | > 100 | > 100 | > 100 | > 100 | > 100 | > 100 | > 100 | > 100 | > 100 |  |  |  |  | 
2 | CCOC(=O)C(C)NC(=O)NC12CC3CC(CC(F)(C3)C1)C2 (stereo not drawn) | > 100 | > 100 | 56.2 | > 100 | > 100 | > 100 |  | > 100 | > 100 | > 100 | > 100 | > 100 | > 100 | > 100 | 86.6 |  | 
3 | N#C/C(c1nc2ccccc2[nH]1)=c1\s/c(=C/c2ccccc2)c(=O)n1-c1ccccc1 | > 100 | > 100 | > 100 | > 100 | > 100 | > 100 | > 100 | > 100 | > 100 | > 100 | > 100 | > 100 | > 100 | > 100 |  | > 100 | 
4 | CCOC(=O)c1c(CN2CCNCC2)nc2ccc(Cl)cc2c1-c1ccccc1 | 12.9 | 21.6 | 3.16 | 7.18 | 3.56 | 25.7 | 12.3 | 11.7 | 4.89 | 28.4 | 4.87 | 9.69 | 23.4 | 3 | 10.7 | 4.51 | 
5 | COc1cccc(C2=NC(C(C)C)CO2)c1OC (stereo not drawn) | > 100 | > 100 | > 100 | > 100 | > 100 | > 100 | > 100 | > 100 | > 100 | > 100 | > 100 | > 100 | > 100 | > 100 | > 100 |  | 
6 | Cc1ccc(NC(=O)C2C3C=CC(O3)C2C(=O)O)cc1 (stereo not drawn) | > 100 | > 100 | > 100 |  | > 100 | > 100 | > 100 | > 100 | 54.7 | > 100 | 26.8 | > 100 | > 100 | > 100 | 80.1 | > 100 | 
7 | CCc1cccc(C(C)C)c1NC(=O)/C(=N\NC(N)=O)C(C(=O)OC)c1cnc2ccccc2n1 (stereo not drawn) | > 100 | > 100 |  | > 100 | 76.4 | 57.5 | > 100 | > 100 |  | > 100 | > 100 | > 100 | > 100 | > 100 | > 100 | > 100 | 
8 | CC(=O)NC(CCCCNCc1ccccc1)C(=O)NCc1ccccc1 (stereo not drawn) | > 100 | > 100 | > 100 | > 100 | > 100 | > 100 | > 100 | > 100 | > 100 | > 100 | > 100 | > 100 | > 100 | > 100 | > 100 |  | 
9 | O=C(O)CCC(NC(=O)c1ccc(Oc2nc3ccccc3nc2C(=O)O)cc1)C(=O)O (stereo not drawn) | > 100 | > 100 | > 100 | > 100 | > 100 | > 100 | > 100 | > 100 | > 100 | > 100 | > 100 | > 100 | > 100 | > 100 | > 100 | > 100 | 
10 | CC1(O)CC2C(CC1SC1CC3C(CC1(C)O)C3(C)C)C2(C)C (stereo not drawn) | > 100 |  | > 100 | > 100 | > 100 | > 100 | 94.1 | > 100 | > 100 |  |  | > 100 | 83.9 | > 100 |  |  | 
11 | CC(=O)NC1=NC(=O)/C(=C/c2ccccc2Cl)N1C | > 100 | > 100 | > 100 | > 100 |  | > 100 | > 100 | > 100 |  | > 100 | > 100 | > 100 | > 100 | > 100 | > 100 |  | > 100
12 | CCOc1ccc(N(CC(=O)N2CC(=O)Nc3cc(C)c(C)cc32)C(C)=O)cc1 | > 100 | > 100 | > 100 | > 100 | > 100 | > 100 | > 100 | > 100 | > 100 | > 100 | > 100 | > 100 | > 100 | > 100 | > 100 | > 100 | 
13 | Cc1ccc(C(=O)NC2CCCCC2)cc1N=NN(C)C | > 100 | > 100 | > 100 | > 100 |  | > 100 | > 100 | > 100 |  | > 100 | > 100 | > 100 | > 100 | > 100 |  |  | 
14 | COc1cc([C@@H]2c3cc4c(cc3[C@@H](NCc3ccccc3F)C3COC(=O)[C@@H]32)OCO4)cc(OC)c1O (stereo partly drawn) | 4.28 | 7.74 | 54.3 | 18 | 28.3 | 7.5 | > 100 | > 100 | 13.1 | 60.5 | 39.1 | 17.3 | 45.9 | 28.3 | 54.7 |  | 
15 | CCOC(=O)c1cc(=O)c2cccc3c2n1CCS3 | > 100 | > 100 | > 100 | > 100 |  | > 100 |  | > 100 |  | > 100 | > 100 | > 100 | > 100 |  |  |  | > 100
16 | O=C1/C(=C/c2ccccc2Cl)COc2ccc(Br)cc21 | > 100 | > 100 | > 100 | > 100 | > 100 | > 100 |  | > 100 |  |  | > 100 | > 100 | > 100 | > 100 | > 100 |  | 

— PubChem BioAssay (NCI)
